Among the data in patent US7285546B2, “Cephalotaxanes, their method of preparation and their use in treatment of cancers, leukemias, parasites including those resistant to usual chemotherapeutic agents and as reversal agents” (Stragen Pharma S.A., priority 2000, dated 2007) are IC50 values, retold here.

Values after ≈ are worked out from the molar mass of the structure shown.

One may read the IC50 as the concentration that gives 50% inhibition.

The first experiment deals with K562 cell line. As to the kind of experiment: MTT test of structural analogues of harringtonines on K562 cell line. The experiment is classed as cell-based. As to conditions: Homo sapiens, K562, 72 h. As for the experimental part: (§1) Structural analogues of harringtonines described in this invention were tested on K562 cell line, derived from chronic myeloid leukemia cells in blastic transformation (bcr-abl positive). The cell line was purchased from ATCC (American Tissue Culture Collection) and grown in RPMI medium supplemented with 10% heat-inactivated fetal calf serum, 2 mmol/L glutamine, […] penicillin and […] streptomycin. All tested products were initially dissolved in […] (pH=2), supplemented with ultrasound treatment during 1 h. Working concentrations were made by dilution in culture medium (pH around 7). Cells in exponential growth phase were placed into 96-microwell plates in concentration 3×10^4/mL (total volume 200 μL/well) and incubated with drugs for 72 h at 37° C. in 5% CO2 humidified atmosphere. Following incubation, 2 μL of MTT solution (Sigma, St. Louis, Mo.) was added to each well. During the following 6 h of incubation at 37° C., the purple formazan product was formed by conversion of the yellow MTT salt in the mitochondria of the viable cells. The resulting precipitate was dissolved in DMSO and the amount of converted MTT was quantified in an ELISA reader (MR 5000, Dynatech). Each product was tested in triplicate (3×8 wells). Every test contained at least one plate with HHT as control, added in the same concentration as the tested products.
On to `COC1=C[C@@]23CCCN2CCc2cc4c(cc2[C@@H]3C1OC(=O)[C@@](O)(CCCC(C)(C)O)CC(=O)OCc1cccc(C)c1)OCO4` (stereo partly drawn) [Example 73, (2′R)-4′-m-methylbenzyl-4′-demethyl-homoharringtonine], for which the IC50 was 0.004 µg/mL (≈ 0.00629 µM).
Compound `COC1=C[C@@]23CCCN2CCc2cc4c(cc2[C@@H]3C1OC(=O)[C@@](O)(CCCC(C)(C)O)CC(=O)OCCCCCO)OCO4` (stereo partly drawn) [Example 74, (2′R)-4′-(5-hydroxypentyl)-4′-demethyl-homo harringtonine] yielded a 50% inhibitory concentration (IC50) of 0.024 µg/mL (≈ 0.0389 µM).
On the same count and under the same terms, to `COCCOC(=O)C[C@](O)(CCCC(C)(C)O)C(=O)OC1C(OC)=C[C@@]23CCCN2CCc2cc4c(cc2[C@H]13)OCO4` (stereo partly drawn) [Example 78, (2′R)-4′-(2-methoxyethoxy)-4′-demethyl-homoharringtonine] belongs 0.012 µg/mL (≈ 0.0203 µM); to `COC1=C[C@@]23CCCN2CCc2cc4c(cc2[C@@H]3C1OC(=O)[C@@](O)(CCCC(C)(C)O)CC(=O)Oc1ccccc1)OCO4` (stereo partly drawn) [Example 79, (2′R)-4′-phenoxy-4′-demethylhomoharringtonine], 0.01 µg/mL (≈ 0.0165 µM).
`COC1=C[C@@]23CCCN2CCc2cc4c(cc2[C@@H]3C1OC(=O)[C@@](O)(CCCC(C)(C)O)CC(=O)OCCOCc1ccccc1)OCO4` (stereo partly drawn) [Example 80, (2′R)-4′-(2-benzyloxyethoxy)-4′-demethyl-homoharringtonine] displayed a 50% inhibitory concentration (IC50) of 0.025 µg/mL (≈ 0.0375 µM).
`COC1=C[C@@]23CCCN2CCc2cc4c(cc2[C@@H]3C1OC(=O)[C@@](O)(CCCC(C)(C)O)CC(=O)OCc1cccc2ccccc12)OCO4` (stereo partly drawn) [Example 81, (2′R)-4′-(1-naphtalenemethoxy)-4′-demethyl-homoharringtonine] gave a 50% inhibitory concentration (IC50) of 0.008 µg/mL (≈ 0.0119 µM).
Consider `COC1=C[C@@]23CCCN2CCc2cc4c(cc2[C@@H]3C1OC(=O)[C@@](O)(CCCC(C)(C)O)CC(=O)OCc1cccs1)OCO4` (stereo partly drawn) [Example 82, (2′R)-4′-(2-thiophenemethoxy)-4′-demethyl-homoharringtonine], for which the IC50 is 0.005 µg/mL (≈ 0.00796 µM).
Compound `COC1=C[C@@]23CCCN2CCc2cc4c(cc2[C@@H]3C1OC(=O)[C@@](O)(CCCC(C)(C)O)CC(=O)OCc1ccco1)OCO4` (stereo partly drawn) [Example 83, (2′R)-4′-furfuryl-4′-demethyl-homoharringtonine] registered an IC50 of 0.003 µg/mL (≈ 0.0049 µM).
Compound `CCCCCCOC(=O)C[C@](O)(CCC(C)C)C(=O)OC1C(OC)=C[C@@]23CCCN2CCc2cc4c(cc2[C@H]13)OCO4` (stereo partly shown) [Example 84, (2′ R)-4′-hexanyloxy-4′-demethyldeoxyharringtonine] showed an IC50 of 0.007 µg/mL (≈ 0.012 µM).
`COC1=C[C@@]23CCCN2CCc2cc4c(cc2[C@@H]3C1OC(=O)[C@@](O)(CCCC(C)(C)O)CC(=O)OCc1ccc([N+](=O)[O-])cc1)OCO4` (stereo partly drawn) [Example 85, (2′R)-4′-p-nitrobenzyloxy-4′-demethyl-homoharringtonine] returned a half-inhibitory concentration (IC50) of 0.018 µg/mL (≈ 0.027 µM).
The same measure, in the same setting: to `COC1=C[C@@]23CCCN2CCc2cc4c(cc2[C@@H]3C1OC(=O)[C@@](O)(CCCC(C)(C)O)CC(=O)OCc1ccc(OC)cc1)OCO4` (stereo partly drawn) [Example 86, (2′R)-4′-p-methoxybenzyloxy-4′-demethyl-homoharringtonine] belongs 0.02 µg/mL (≈ 0.0307 µM).
With `COC1=C[C@@]23CCCN2CCc2cc4c(cc2[C@@H]3C1OC(=O)[C@@](O)(CCCC(C)(C)O)CC(=O)OCc1ccccc1OC)OCO4` (stereo partly drawn) [Example 90, (2′R)-4′-o-methoxybenzyloxy-4′-demethyl-homoharringtonine], the half-inhibitory concentration (IC50) stood at 0.027 µg/mL (≈ 0.0414 µM).
Same read-out and setting: the figure for `COC(=O)C[C@](O)(CCC(C)(C)O)C(=O)O[C@@H]1C(OC)=C[C@]23CCCN2CCc2cc4c(cc2[C@H]13)OCO4` [HARRINGTONINE (HHT), harringtonine, reference compound] is 0.03 µg/mL (≈ 0.0564 µM).

The experiment is the same for the next values; noted with them: Homo sapiens; K562 cell line, 72 h incubation, MTT; read-out: IC50.
On to `[2H]C([2H])([2H])OC(=O)C[C@](O)(CCCC(C)(C)O)C(=O)OC1C(OC)=C[C@@]23CCCN2CCc2cc4c(cc2[C@H]13)OCO4` (stereo partly drawn) [Example 75, (2′R)-(4′-^2H3)homoharringtonine], for which the IC50 was determined as 0.025 µg/mL (≈ 0.0456 µM).
For `[2H]COC(=O)C[C@](O)(CCCC(C)(C)O)C(=O)OC1C(OC)=C[C@@]23CCCN2CCc2cc4c(cc2[C@H]13)OCO4` (stereo partly drawn) [Example 76, (2′R)-(4′-^2H)homoharringtonine], the IC50 came out at 0.018 µg/mL (≈ 0.0329 µM).
On the same count and under the same terms, to `[2H]C([2H])OC(=O)C[C@](O)(CCCC(C)(C)O)C(=O)OC1C(OC)=C[C@@]23CCCN2CCc2cc4c(cc2[C@H]13)OCO4` (stereo partly drawn) [Example 87, (2′R)-(4′-^2H2)homoharringtonine] belongs 0.021 µg/mL (≈ 0.0383 µM); to `COC(=O)C[C@](O)(CCCC(C)(C)O)C(=O)O[C@@H]1C(OC)=C[C@]23CCCN2CCc2cc4c(cc2[C@H]13)OCO4` [HOMOHARRINGTONINE, homoharringtonine, reference compound], 0.014 µg/mL (≈ 0.0257 µM).

The experiment is the same for the next values; noted with them: K562 cell line, 72 h incubation, MTT.
The compound `CC=CC=CCOC(=O)C[C@](O)(CCCC(C)(C)O)C(=O)O[C@@H]1C(OC)=C[C@]23CCCN2CCc2cc4c(cc2[C@H]13)OCO4` [Example 43, (2′R)-4′-(hexa-2,4-dienyl)-4′-demethyl-homoharringtonine] returned an IC50 of 0.0035 µg/mL (≈ 0.00572 µM).

A further experiment relates to K562MRP. Description: MTT test on K562MRP, homoharringtonine-resistant subline of K562. The experiment is classed as cell-based. As to conditions: K562MRP subline resistant to 50 ng/mL homoharringtonine, same method as K562. As for the experimental part: as §1
Background: Tetrazolium dyes change colour on reduction, which living cells bring about.
For `CC=CC=CCOC(=O)C[C@](O)(CCCC(C)(C)O)C(=O)O[C@@H]1C(OC)=C[C@]23CCCN2CCc2cc4c(cc2[C@H]13)OCO4` [Example 43, (2′R)-4′-(hexa-2,4-dienyl)-4′-demethyl-homoharringtonine], the half-maximal inhibitory concentration (IC50) worked out at 0.016 µg/mL (≈ 0.0262 µM).
